From patent US4180583A, “Olefinic 4-substituted piperidino derivatives as therapeutics” (Richardson-Merrell Inc., priority 1978, dated 1979)
Where a name gives a salt, the structure may show the parent alone.

Columns and labels:
[1] = tested on: wheals induced by intradermal injections of histamine; assay: reduction of wheals induced by intradermal injections of histamine in guinea pigs; type: in vivo, guinea pig; conditions: Cavia porcellus, po, 1 h, orally administered one hour prior to histamine injection, intradermal injections of 1γ each of histamine, read-out: ED50 (amount required to reduce by 50% wheals induced by intradermal histamine)
[2] = tested on: aerosol antigen induced bronchial spasms and death; assay: prevention of aerosol antigen induced bronchial spasms and death in the guinea pig; type: in vivo; conditions: Cavia porcellus, po, orally, read-out: minimal amount required to prevent aerosol antigen induced bronchial spasms and death
Text: The minimal amounts of the compounds of Examples 5 and 9 required to prevent aerosol antigen induced bronchial spasms and death in the guinea pig are respectively 4.0 and 8.0 milligrams per kilogram of body weight orally.

Row | Structure (SMILES) | ED50 [1] [mg/kg] | minimal effective dose [2] [mg/kg]
1 | Fc1ccc(C=CCCN2CCC(C(c3ccccc3)c3ccccc3)CC2)cc1 [Example 2, 4-(Diphenylmethyl)-1-[4-(p-fluorophenyl)-3-butenyl]-piperidine hydrochloride hemihydrate] | 14.4 | 
2 | Cl.O=C(CCCN1CCC(=C(c2ccccc2)c2ccccc2)CC1)c1cccs1 [Example 5, 4-[4-(Diphenylmethylene)piperidino]-1-(2-thienyl)-1-butanone hydrochloride] | 3.1 | 4
3 | CC(C)(C)c1ccc(C(=O)CCCN2CCC(=C(c3ccccc3)c3ccccc3)CC2)cc1.Cl [Example 9, 4'-tert-Butyl-4-[4-(diphenylmethylene)piperidino]butyrophenone hydrochloride] | 4 | 8
